For this assay, the system named is nAChRs. Type of assay: cell-based, rat.

Consider one compound from patent US10238641B2, “Materials and methods for diagnosis, prevention and/or treatment of stress disorders and conditions associated with A-beta peptide aggregation” (The United States of America as represented by the …, priority 2008, dated 2019).

With `CN1CCCC1c1cccnc1` (stereo not shown) [nicotine, reference compound], the “reversal by α-Bgt of the beneficial actions against Aβ toxicity” value is listed as “able to reverse the beneficial actions of nicotine”.
